Values quoted from earlier work as cited in US20070218050A1, “Methods for treatment and prevention of otitis media using chemical penetration enhancers to facilitate transmembrane drug delivery into the middle ear” (Piedmont Pharmaceuticals LLC, priority 2005, published 2007).

Columns and labels:
[1] = concentrations at or in excess of 50% v/v, applied to the middle ear; Vassalli et al. 1988
[2] = round window membrane of the inner ear and cochlea; Marsh and Tom 1989

## CC(O)CO (centres unmarked) [propylene glycol]
[1]
  Damage to the middle ear: produces inflammation-related damage to the middle ear
[2]
  Inner ear ototoxicity: implicated in inner ear ototoxicity
